The results in this text go back to patent US11058678B2 (Enanta Pharmaceuticals, Inc., priority 2018, dated 2021).

A short description of series [1]: Compound induced cellular toxicity in HepG2 cells (ATPlite 1 Step). It counts as cell-based. The following applies: human, three days, 50% reduction of total ATP levels vs no drug controls. Here is the method:
At day 3, post seeding cells are treated with ATPlite 1 Step according to the manufacturer's instructions.

Another series concerns HBV (2.2.15 cells). In words: Antiviral activity in 2.2.15 cells: reduction of viral product accumulation (qPCR of lysates, HBsAg or HBeAg ELISA). The class given is cell-based, hepatitis B virus (HBV). The conditions noted are these: Hepatitis B virus, 120 h, day 5 post treatment, 50% reduction of viral product accumulation in lysates or supernatants vs no drug controls, readout (qPCR, HBsAg, HBeAg) not specified. In short, it runs like this:
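HBV-producing 2.2.15 cells, 35,000/well, treated with 5-fold serial compound dilutions at 0.5% final DMSO for 5 days. Lysate HBV DNA by qPCR or supernatant HBsAg/HBeAg by ELISA; EC50 is 50% reduction versus no-drug control, binned A<0.1 μM, B 0.1-1 μM, C>1 μM.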

A value given as a limit tells only on which side of the number the result lay.

What is called CC50 is the concentration that lowers cell viability or growth by half. Read a low CC50 as harm at low concentration. The term EC50 denotes the concentration that produces a half-maximal response. Read a low EC50 as a more potent agent. In series [1], `COCCCOc1cc2c(cc1-c1cc3ccccc3[nH]1)-c1cc(=O)c(C(=O)O)cn1[C@H](C(C)(C)C)C2` [Example 19, (S)-6-(tert-butyl)-10-(1H-indol-2-yl)-9-(3-methoxypropoxy)-2-oxo-6,7-dihydro-2H-pyrido[2,1-a]isoquinoline-3-carboxylic Acid] yielded a CC50 at 3 days greater than 25 µM. The compound also came in with an EC50 in the series with HBV (2.2.15 cells) of 0.1 to 1 µM.

In series [1], `COCCCOc1cc2c(cc1-c1sc(C)nc1C)-c1cc(=O)c(C(=O)O)cn1[C@H](C(C)(C)C)C2` [Example 20, (S)-6-(tert-butyl)-10-(2,4-dimethylthiazol-5-yl)-9-(3-methoxypropoxy)-2-oxo-6,7-dihydro-2H-pyrido[2,1-a]isoquinoline-3-carboxylic Acid] had a CC50 at 3 days greater than 25 µM. Moreover, the EC50 with HBV (2.2.15 cells) lay within 0.1 to 1 µM.

For the compound `COCCCOc1cc2c(cc1-c1c(C)oc3ccccc13)-c1cc(=O)c(C(=O)O)cn1[C@H](C(C)(C)C)C2` [Example 21, (S)-6-(tert-butyl)-9-(3-methoxypropoxy)-10-(2-methylbenzofuran-3-yl)-2-oxo-6,7-dihydro-2H-pyrido[2,1-a]isoquinoline-3-carboxylic Acid], in series [1], the CC50 at 3 days is greater than 25 µM. For the same compound, the EC50 in the series with HBV (2.2.15 cells) lay within 0.1 to 1 µM.

In turn, `COCCCOc1cc2c(cc1-c1ccc(F)cc1F)-c1cc(=O)c(C(=O)O)cn1[C@H](C(C)(C)C)C2` [Example 22, (S)-6-(tert-butyl)-10-(2,4-difluorophenyl)-9-(3-methoxypropoxy)-2-oxo-6,7-dihydro-2H-pyrido[2,1-a]isoquinoline-3-carboxylic Acid] displayed a CC50 at 3 days in series [1] greater than 25 µM. Also, in the series with HBV (2.2.15 cells), the EC50 lay in the range of 0.1 to 1 µM.

Turning to `COCCCOc1cc2c(cc1-c1cccc(F)c1F)-c1cc(=O)c(C(=O)O)cn1[C@H](C(C)(C)C)C2` [Example 23, (S)-6-(tert-butyl)-10-(2,3-difluorophenyl)-9-(3-methoxypropoxy)-2-oxo-6,7-dihydro-2H-pyrido[2,1-a]isoquinoline-3-carboxylic Acid], the CC50 at 3 days in series [1] is greater than 25 µM. The same compound showed an EC50 in the series with HBV (2.2.15 cells) of 0.1 to 1 µM.

Consider `COCCCOc1cc2c(cc1-c1ccc3c(c1)OCCN3C)-c1cc(=O)c(C(=O)O)cn1[C@H](C(C)(C)C)C2` [Example 24, (S)-6-(tert-butyl)-9-(3-methoxypropoxy)-10-(4-methyl-3,4-dihydro-2H-benzo[b][1,4]oxazin-7-yl)-2-oxo-6,7-dihydro-2H-pyrido[2,1-a]isoquinoline-3-carboxylic Acid], for which the CC50 at 3 days in series [1] is greater than 25 µM. The same compound showed an EC50 with HBV (2.2.15 cells) of 0.1 to 1 µM.

In series [1], `COCCCOc1cc2c(cc1-c1nc3ccccc3o1)-c1cc(=O)c(C(=O)O)cn1[C@H](C(C)(C)C)C2` [Example 25, (S)-10-(benzo[d]oxazol-2-yl)-6-(tert-butyl)-9-(3-methoxypropoxy)-2-oxo-6,7-dihydro-2H-pyrido[2,1-a]isoquinoline-3-carboxylic Acid] came in with a CC50 at 3 days greater than 25 µM. The compound further returned an EC50 in the series with HBV (2.2.15 cells) of 0.1 to 1 µM.

In series [1], `COCCCOc1cc2c(cc1-c1nc(C(F)(F)F)co1)-c1cc(=O)c(C(=O)O)cn1[C@H](C(C)(C)C)C2` [Example 26, (S)-6-(tert-butyl)-9-(3-methoxypropoxy)-2-oxo-10-(4-(trifluoromethyl)oxazol-2-yl)-6,7-dihydro-2H-pyrido[2,1-a]isoquinoline-3-carboxylic Acid] gave a CC50 at 3 days greater than 25 µM. Further, the concentration for a half-maximal effect (EC50) in the series with HBV (2.2.15 cells) lay within 0.1 to 1 µM.

With `COCCCOc1cc2c(cc1-c1ocnc1C(F)(F)F)-c1cc(=O)c(C(=O)O)cn1[C@H](C(C)(C)C)C2` [Example 27, (S)-6-(tert-butyl)-9-(3-methoxypropoxy)-2-oxo-10-(4-(trifluoromethyl)oxazol-5-yl)-6,7-dihydro-2H-pyrido[2,1-a]isoquinoline-3-carboxylic Acid], the CC50 at 3 days in series [1] is greater than 25 µM. For the same compound, the EC50 with HBV (2.2.15 cells) is 0.1 to 1 µM.

Regarding `COCCCOc1cc2c(cc1-n1cccn1)-c1cc(=O)c(C(=O)O)cn1[C@H](C(C)(C)C)C2` [Example 28, (S)-6-(tert-butyl)-9-(3-methoxypropoxy)-2-oxo-10-(1H-pyrazol-1-yl)-6,7-dihydro-2H-pyrido[2,1-a]isoquinoline-3-carboxylic Acid], the CC50 at 3 days in series [1] was greater than 25 µM. The EC50 in the series with HBV (2.2.15 cells) lay in the range of 0.1 to 1 µM.

As for `COCCCOc1cc2c(cc1C1=CCCCO1)-c1cc(=O)c(C(=O)O)cn1[C@H](C(C)(C)C)C2` [Example 29, (S)-6-(tert-butyl)-10-(3,4-dihydro-2H-pyran-6-yl)-9-(3-methoxypropoxy)-2-oxo-6,7-dihydro-2H-pyrido[2,1-a]isoquinoline-3-carboxylic Acid], the CC50 at 3 days in series [1] was greater than 25 µM. The half-maximal effective concentration (EC50) in the series on HBV (2.2.15 cells) was 0.1 to 1 µM.

`CC(C)(C)[C@@H]1Cc2c(cc(N3CC(F)(F)C3)c3c2CCO3)-c2cc(=O)c(C(=O)O)cn21` [Example 30, (S)-5-(tert-butyl)-12-(3,3-difluoroazetidin-1-yl)-9-oxo-2,3,4,9-tetrahydro-5H-furo[3,2-f]pyrido[2,1-a]isoquinoline-8-carboxylic Acid]: the CC50 at 3 days in series [1] is greater than 25 µM. In the series with HBV (2.2.15 cells), this compound had an EC50 of less than 0.1 µM.

Turning to `COCCCOc1cc2c(cc1C1=COCC1)-c1cc(=O)c(C(=O)O)cn1[C@H](C(C)(C)C)C2` [Example 46, (S)-6-(tert-butyl)-10-(4,5-dihydrofuran-3-yl)-9-(3-methoxypropoxy)-2-oxo-6,7-dihydro-2H-pyrido[2,1-a]isoquinoline-3-carboxylic Acid], the 50% cytotoxic concentration (CC50) at 3 days in series [1] is greater than 25 µM. The same compound came in with an EC50 in the series on HBV (2.2.15 cells) of less than 0.1 µM.

In the case of `COCCCOc1cc2c(cc1-c1ccc(F)cc1)-c1cc(=O)c(C(=O)O)cn1[C@H]1[C@@H]2CCC1(C)C` [Example 59], the CC50 at 3 days in series [1] fell in the range of 10 to 25 µM. This compound also had a half-maximal effective concentration (EC50) with HBV (2.2.15 cells) of less than 0.1 µM.

As to `COCCCOc1cc2c(cc1-c1ccoc1)-c1cc(=O)c(C(=O)O)cn1[C@H]1[C@@H]2CCC1(C)C` [Example 60, (3aS,12bR)-10-(furan-3-yl)-11-(3-methoxypropoxy)-3,3-dimethyl-7-oxo-1,2,3,3a,7,12b-hexahydrocyclopenta[c]pyrido[2,1-a]isoquinoline-6-carboxylic Acid], in series [1], the CC50 at 3 days was 10 to 25 µM. This compound came in with an EC50 in the series with HBV (2.2.15 cells) of less than 0.1 µM.

Compound `COCCCOc1cc2c(cc1-c1ccc(F)cc1)-c1cc(=O)c(C(=O)O)cn1[C@H]1[C@@H]2COC1(C)C` [Example 61, (3aS,12bR)-10-(4-fluorophenyl)-11-(3-methoxypropoxy)-3,3-dimethyl-7-oxo-3,3a,7,12b-tetrahydro-1H-furo[3,4-c]pyrido[2,1-a]isoquinoline-6-carboxylic Acid] gave a CC50 at 3 days in series [1] greater than 25 µM. Moreover, in the series on HBV (2.2.15 cells), the EC50 was less than 0.1 µM.

`CC(C)(C)[C@@H]1Cc2c(cc(-c3ccc(F)cc3)c3c2CCO3)-c2cc(=O)c(C(=O)O)cn21` [Example 62, (S)-5-(tert-butyl)-12-(4-fluorophenyl)-9-oxo-2,3,4,9-tetrahydro-5H-furo[3,2-f]pyrido[2,1-a]isoquinoline-8-carboxylic Acid]: in series [1], the CC50 at 3 days was less than 10 µM. Also, the EC50 in the series on HBV (2.2.15 cells) was less than 0.1 µM.

The compound `COCCCOc1cc2c(cc1-c1cnco1)-c1cc(=O)c(C(=O)O)cn1[C@H]1[C@@H]2CCC1(C)C` [Example 63, (3aS,12bR)-11-(3-methoxypropoxy)-3,3-dimethyl-10-(oxazol-5-yl)-7-oxo-1,2,3,3a,7,12b-hexahydrocyclopenta[c]pyrido[2,1-a]isoquinoline-6-carboxylic Acid] registered a CC50 at 3 days in series [1] of 10 to 25 µM. For the same compound, the EC50 in the series with HBV (2.2.15 cells) was less than 0.1 µM.

In series [1], `CC(C)(C)[C@@H]1Cc2c(cc(-c3ccoc3)c3c2CCO3)-c2cc(=O)c(C(=O)O)cn21` [Example 64, (S)-5-(tert-butyl)-12-(furan-3-yl)-9-oxo-2,3,4,9-tetrahydro-5H-furo[3,2-f]pyrido[2,1-a]isoquinoline-8-carboxylic Acid] yielded a CC50 at 3 days of less than 10 µM. The EC50 in the series on HBV (2.2.15 cells) is less than 0.1 µM.

Turning to `CC(C)(C)[C@@H]1Cc2c(cc(-c3cccc(F)c3)c3c2CCO3)-c2cc(=O)c(C(=O)O)cn21` [Example 65, (S)-5-(tert-butyl)-12-(3-fluorophenyl)-9-oxo-2,3,4,9-tetrahydro-5H-furo[3,2-f]pyrido[2,1-a]isoquinoline-8-carboxylic Acid], the CC50 at 3 days in series [1] is less than 10 µM. Also, in the series on HBV (2.2.15 cells), the EC50 is less than 0.1 µM.

In turn, `CC(C)(C)[C@@H]1Cc2c(cc(-c3ccccc3F)c3c2CCO3)-c2cc(=O)c(C(=O)O)cn21` [Example 66, (S)-5-(tert-butyl)-12-(2-fluorophenyl)-9-oxo-2,3,4,9-tetrahydro-5H-furo[3,2-f]pyrido[2,1-a]isoquinoline-8-carboxylic Acid] yielded a CC50 at 3 days in series [1] of less than 10 µM. The same compound came in with an EC50 in the series on HBV (2.2.15 cells) of less than 0.1 µM.

Regarding `CC(C)(C)[C@@H]1Cc2c(cc(-c3ccccc3)c3c2CCO3)-c2cc(=O)c(C(=O)O)cn21` [Example 67, (S)-5-(tert-butyl)-9-oxo-12-phenyl-2,3,4,9-tetrahydro-5H-furo[3,2-f]pyrido[2,1-a]isoquinoline-8-carboxylic Acid], the CC50 at 3 days in series [1] was less than 10 µM. The compound also registered an EC50 in the series on HBV (2.2.15 cells) of less than 0.1 µM.

As to `CC(C)(C)[C@@H]1Cc2c(cc(-c3ccsc3)c3c2CCO3)-c2cc(=O)c(C(=O)O)cn21` [Example 71, (S)-5-(tert-butyl)-9-oxo-12-(thiophen-3-yl)-2,3,4,9-tetrahydro-5H-furo[3,2-f]pyrido[2,1-a]isoquinoline-8-carboxylic Acid], the CC50 at 3 days in series [1] is less than 10 µM. The compound further had an EC50 with HBV (2.2.15 cells) of less than 0.1 µM.

In turn, `CC(C)(C)[C@@H]1Cc2c(cc(-c3ccc(F)c(F)c3)c3c2CCO3)-c2cc(=O)c(C(=O)O)cn21` [Example 77, (S)-5-(tert-butyl)-12-(3,4-difluorophenyl)-9-oxo-2,3,4,9-tetrahydro-5H-furo[3,2-f]pyrido[2,1-a]isoquinoline-8-carboxylic Acid] registered a CC50 at 3 days in series [1] of less than 10 µM. Further, in the series with HBV (2.2.15 cells), the EC50 was less than 0.1 µM.
